Data: patent US9995734B2, “Human T cell line assay for evaluating the immunologic identity of glatiramer acetate preparations” (Mylan Inc., priority 2013, dated 2018)
Values joined by “and” are separate entries in the source; they are usually repeats but may differ in a detail not shown here. Equal entries are not always repeated.

Legend:
Assay type in all cases: cell-based, human
Donor 3 GMA T-Cell Lines = assay: ATP proliferation assay (CellTiter Glo), Donor 3 GMA T-cell lines, incl. reactivity to non-canonical GA peptides; details: for Non-Canonical Peptide Non-Reactivity: proliferation <2 times no antigen control; for Non-Canonical Peptide Reactivity: at least one proliferation value >=2 times no antigen control
Donor 4 COP T-Cell Lines = assay: ATP proliferation assay (CellTiter Glo), Donor 4 COP T-cell lines, incl. reactivity to non-canonical GA peptides; details: for Non-Canonical Peptide Non-Reactivity: proliferation <2 times no antigen control; for Proliferation (luminescent ATP assay), Mean: T-cell line 205-1F4, autologous B-LCL
Donor 3 COP T-Cell Lines = assay: ATP proliferation assay (CellTiter Glo), Donor 3 COP T-cell lines, incl. reactivity to non-canonical GA peptides; details: for Non-Canonical Peptide Reactivity: at least one proliferation value >=2 times no antigen control

Substance: poly (Lys-Tyr; 1:1) [LT 11]
- proliferation response to non-canonical GA peptides (Donor 3 GMA T-Cell Lines; 165-05G (so in the source), minimum 55 days in culture, 0, 1, 3, 10 μg/mL): responded
- Non-Canonical Peptide Non-Reactivity (Donor 3 GMA T-Cell Lines; 165-B5G): LT 11
- Non-Canonical Peptide Reactivity (Donor 3 GMA T-Cell Lines; 165-C5G): LT 11
- Non-Canonical Peptide Non-Reactivity (Donor 3 GMA T-Cell Lines; 165-E7G): LT 11
- Non-Canonical Peptide Non-Reactivity (Donor 3 GMA T-Cell Lines; 165-E9G): LT 11
- Non-Canonical Peptide Non-Reactivity (Donor 3 GMA T-Cell Lines; 165-F5G): LT 11
- Non-Canonical Peptide Reactivity (Donor 3 GMA T-Cell Lines; 165-F10G): LT 11
- Non-Canonical Peptide Non-Reactivity (Donor 3 GMA T-Cell Lines; 165-H11G): LT 11
- Reactive T-Cell Line (Donor 3 GMA T-Cell Lines; Donor 3 GMA lines, at least a 50% increase in proliferation relative to a control after stimulation with the non-canonical GA peptide): 165-C5G (Donor 3) and 165-F10G (Donor 3)
- Nonreactive T-Cell Line (Donor 3 GMA T-Cell Lines; Donor 3 GMA lines, stimulation with the non-canonical GA peptide): 165-B5G (Donor 3) and 165-F5G (Donor 3) and 165-E7G (Donor 3) and 165-E9G (Donor 3) and 165-H11G (Donor 3)
- Proliferation (luminescent ATP assay), Mean (Donor 3 GMA T-Cell Lines; T-cell line 165-B5G, 1.25 μg/mL antigen, Day 55 of culturing, No Antigen Value 846): 1497 RLU
- Proliferation (luminescent ATP assay), Mean (Donor 3 GMA T-Cell Lines; T-cell line 165-B5G, 2.5 μg/mL antigen, Day 55 of culturing, No Antigen Value 846): 1724 RLU
- Proliferation (luminescent ATP assay), Mean (Donor 3 GMA T-Cell Lines; T-cell line 165-B5G, 5 μg/mL antigen, Day 55 of culturing, No Antigen Value 846): 1666 RLU
- Proliferation (luminescent ATP assay), Mean (Donor 3 GMA T-Cell Lines; T-cell line 165-B5G, 10 μg/mL antigen, Day 55 of culturing, No Antigen Value 846): 2705 RLU
- Proliferation (luminescent ATP assay), Mean (Donor 3 GMA T-Cell Lines; T-cell line 165-C5G, 1.25 μg/mL antigen, autologous B-LCL): 527 RLU
- Proliferation (luminescent ATP assay), Mean (Donor 3 GMA T-Cell Lines; T-cell line 165-C5G, 2.5 μg/mL antigen, autologous B-LCL): 680 RLU
- Proliferation (luminescent ATP assay), Mean (Donor 3 GMA T-Cell Lines; T-cell line 165-C5G, 5 μg/mL antigen, autologous B-LCL): 3010 RLU
- Proliferation (luminescent ATP assay), Mean (Donor 3 GMA T-Cell Lines; T-cell line 165-C5G, 10 μg/mL antigen, autologous B-LCL): 34438 RLU
- Proliferation (luminescent ATP assay), Mean (Donor 3 GMA T-Cell Lines; T-cell line 165-E7G, 1.25 μg/mL antigen, autologous B-LCL, Day 55): 2785 RLU
- Proliferation (luminescent ATP assay), Mean (Donor 3 GMA T-Cell Lines; T-cell line 165-E7G, 2.5 μg/mL antigen, autologous B-LCL, Day 55): 5270 RLU
- Proliferation (luminescent ATP assay), Mean (Donor 3 GMA T-Cell Lines; T-cell line 165-E7G, 5 μg/mL antigen, autologous B-LCL, Day 55): 3559 RLU
- Proliferation (luminescent ATP assay), Mean (Donor 3 GMA T-Cell Lines; T-cell line 165-E7G, 10 μg/mL antigen, autologous B-LCL, Day 55): 1983 RLU
- Proliferation (luminescent ATP assay), Mean (Donor 3 GMA T-Cell Lines; T-cell line 165-E9G, 1.25 μg/mL antigen, autologous B-LCL): 132 RLU
- Proliferation (luminescent ATP assay), Mean (Donor 3 GMA T-Cell Lines; T-cell line 165-E9G, 2.5 μg/mL antigen, autologous B-LCL): 129 RLU
- Proliferation (luminescent ATP assay), Mean (Donor 3 GMA T-Cell Lines; T-cell line 165-E9G, 5 μg/mL antigen, autologous B-LCL): 89 RLU
- Proliferation (luminescent ATP assay), Mean (Donor 3 GMA T-Cell Lines; T-cell line 165-E9G, 10 μg/mL antigen, autologous B-LCL): 91 RLU
- Proliferation (luminescent ATP assay), Mean (Donor 3 GMA T-Cell Lines; T-cell line 165-F5G, 1.25 μg/mL antigen, autologous B-LCL): 126 RLU
- Proliferation (luminescent ATP assay), Mean (Donor 3 GMA T-Cell Lines; T-cell line 165-F5G, 2.5 μg/mL antigen, autologous B-LCL): 113 RLU
- Proliferation (luminescent ATP assay), Mean (Donor 3 GMA T-Cell Lines; T-cell line 165-F5G, 5 μg/mL antigen, autologous B-LCL): 136 RLU
- Proliferation (luminescent ATP assay), Mean (Donor 3 GMA T-Cell Lines; T-cell line 165-F5G, 10 μg/mL antigen, autologous B-LCL): 129 RLU
- Proliferation (luminescent ATP assay), Mean (Donor 3 GMA T-Cell Lines; T-cell line 165-F10G, 1.25 μg/mL antigen, autologous B-LCL): 1145 RLU
- Proliferation (luminescent ATP assay), Mean (Donor 3 GMA T-Cell Lines; T-cell line 165-F10G, 2.5 μg/mL antigen, autologous B-LCL): 1270 RLU
- Proliferation (luminescent ATP assay), Mean (Donor 3 GMA T-Cell Lines; T-cell line 165-F10G, 5 μg/mL antigen, autologous B-LCL): 1552 RLU
- Proliferation (luminescent ATP assay), Mean (Donor 3 GMA T-Cell Lines; T-cell line 165-F10G, 10 μg/mL antigen, autologous B-LCL): 8012 RLU
- Proliferation (luminescent ATP assay), Mean (Donor 3 GMA T-Cell Lines; T-cell line 165-H11G, 1.25 μg/mL antigen, autologous B-LCL): 15 RLU
- Proliferation (luminescent ATP assay), Mean (Donor 3 GMA T-Cell Lines; T-cell line 165-H11G, 2.5 μg/mL antigen, autologous B-LCL): 326 RLU
- Proliferation (luminescent ATP assay), Mean (Donor 3 GMA T-Cell Lines; T-cell line 165-H11G, 5 μg/mL antigen, autologous B-LCL): 357 RLU
- Proliferation (luminescent ATP assay), Mean (Donor 3 GMA T-Cell Lines; T-cell line 165-H11G, 10 μg/mL antigen, autologous B-LCL): 178 RLU
- reactivity to non-canonical GA peptides (Donor 4 COP T-Cell Lines; 205-1F4 (sentence prints 165-1F4), Day 71, 0, 1, 3, 10 μg/mL): showed reactivity
- reactivity to non-canonical GA peptide (Donor 4 COP T-Cell Lines; 205-1F4 (sentence prints 165-1F4), Day 80, 1, 2, 5, 10 μg/mL): showed reactivity
- response relative to the no antigen control (Donor 4 COP T-Cell Lines; 205-1F4, Day 71, dose of 10 μg/mL antigen (text: Table 60)): 76.5 fold
- response relative to the no antigen control (Donor 4 COP T-Cell Lines; 205-1F4, Day 80, dose of 10 μg/mL antigen (Table 58)): 17.3 fold
- Non-Canonical Peptide Reactivity (Donor 4 COP T-Cell Lines; 205-1F4, at least one proliferation value >=2 times no antigen control): LT 11
- response relative to the no antigen control (Donor 4 COP T-Cell Lines; 205-1F4, text Day 80, dose of 10 μg/mL antigen (text: Table 59)): 10.4 fold
- Non-Canonical Peptide Non-Reactivity (Donor 4 COP T-Cell Lines; 205-1H3): LT 11
- Non-Canonical Peptide Non-Reactivity (Donor 4 COP T-Cell Lines; 205-1H11): LT 11
- Reactive T-Cell Line (Donor 4 COP T-Cell Lines; Donor 4 COP lines, at least a 50% increase in proliferation relative to a control after stimulation with the non-canonical GA peptide): 205-1F4 (Donor 4)
- Nonreactive T-Cell Line (Donor 4 COP T-Cell Lines; Donor 4 COP lines, stimulation with the non-canonical GA peptide): 205-1H3 (Donor 4)
- Proliferation (luminescent ATP assay), Mean (Donor 4 COP T-Cell Lines; Day 71, 1 μg/mL antigen): 73850
- Proliferation (luminescent ATP assay), Mean (Donor 4 COP T-Cell Lines; Day 71, 3 μg/mL antigen): 154321
- Proliferation (luminescent ATP assay), Mean (Donor 4 COP T-Cell Lines; Day 71, 10 μg/mL antigen): 158776
- Proliferation (luminescent ATP assay), Mean (Donor 4 COP T-Cell Lines; Day 80, 1 μg/mL antigen): 3,675
- Proliferation (luminescent ATP assay), Mean (Donor 4 COP T-Cell Lines; Day 80, 2 μg/mL antigen): 4,589
- Proliferation (luminescent ATP assay), Mean (Donor 4 COP T-Cell Lines; Day 80, 5 μg/mL antigen): 7,626
- Proliferation (luminescent ATP assay), Mean (Donor 4 COP T-Cell Lines; Day 80, 10 μg/mL antigen): 8,853
- Reactivity (proliferation), Mean (Donor 4 COP T-Cell Lines; T-cell line 205-1H3, 1 μg/mL antigen, 0 μg/mL 4121.0): 4780.3
- Reactivity (proliferation), Mean (Donor 4 COP T-Cell Lines; T-cell line 205-1H3, 3 μg/mL antigen, 0 μg/mL 4121.0): 3083.3
- Reactivity (proliferation), Mean (Donor 4 COP T-Cell Lines; T-cell line 205-1H3, 10 μg/mL antigen, 0 μg/mL 4121.0): 3381.0
- Reactivity (proliferation), Mean (Donor 4 COP T-Cell Lines; T-cell line 205-1H11, 1 μg/mL antigen, 0 μg/mL 6941): 5961 RLU
- Reactivity (proliferation), Mean (Donor 4 COP T-Cell Lines; T-cell line 205-1H11, 10 μg/mL antigen, 0 μg/mL 6941): 6698 RLU
- Reactivity (proliferation), Mean (Donor 4 COP T-Cell Lines; T-cell line 205-1H11, 30 μg/mL antigen, 0 μg/mL 6941): 4303 RLU
- Non-Canonical Peptide Reactivity (Donor 3 COP T-Cell Lines; 165-C4C): LT 11
- Non-Canonical Peptide Reactivity (Donor 3 COP T-Cell Lines; 165-C7C): LT 11
- proliferation response to non-canonical GA peptides (Donor 3 COP T-Cell Lines; 165-F3C (Day 77) and 165-C4C (Day 66), 0, 1, 3, 10 μg/mL): responded well
- Non-Canonical Peptide Reactivity (Donor 3 COP T-Cell Lines; 165-F3C): LT 11
- Non-Canonical Peptide Non-Reactivity (Donor 3 COP T-Cell Lines; 165-F6C, proliferation <2 times no antigen control): LT 11
- Reactive T-Cell Line (Donor 3 COP T-Cell Lines; Donor 3 COP lines, at least a 50% increase in proliferation relative to a control after stimulation with the non-canonical GA peptide): 165-C4C (Donor 3) and 165-C7C (Donor 3) and 165-F3C (Donor 3)
- Nonreactive T-Cell Line (Donor 3 COP T-Cell Lines; Donor 3 COP lines, stimulation with the non-canonical GA peptide): 165-F6C (Donor 3)
- Proliferation (luminescent ATP assay), Mean (Donor 3 COP T-Cell Lines; T-cell line 165-C4C, 1 μg/mL antigen, Day 66 of culture, 0 μg/mL 1881): 2430
- Proliferation (luminescent ATP assay), Mean (Donor 3 COP T-Cell Lines; T-cell line 165-C4C, 3 μg/mL antigen, Day 66 of culture, 0 μg/mL 1881): 2701
- Proliferation (luminescent ATP assay), Mean (Donor 3 COP T-Cell Lines; T-cell line 165-C4C, 10 μg/mL antigen, Day 66 of culture, 0 μg/mL 1881): 4129
- Proliferation (luminescent ATP assay), Mean (Donor 3 COP T-Cell Lines; T-cell line 165-C7C, 1.25 μg/mL antigen, autologous B-LCL): 418 RLU
- Proliferation (luminescent ATP assay), Mean (Donor 3 COP T-Cell Lines; T-cell line 165-C7C, 2.5 μg/mL antigen, autologous B-LCL): 305 RLU
- Proliferation (luminescent ATP assay), Mean (Donor 3 COP T-Cell Lines; T-cell line 165-C7C, 5 μg/mL antigen, autologous B-LCL): 244 RLU
- Proliferation (luminescent ATP assay), Mean (Donor 3 COP T-Cell Lines; T-cell line 165-C7C, 10 μg/mL antigen, autologous B-LCL): 119 RLU
- Proliferation (luminescent ATP assay), Mean (Donor 3 COP T-Cell Lines; T-cell line 165-F3C, 1 μg/mL antigen, Day 77 of culture, 0 μg/mL 1563): 2144
- Proliferation (luminescent ATP assay), Mean (Donor 3 COP T-Cell Lines; T-cell line 165-F3C, 3 μg/mL antigen, Day 77 of culture, 0 μg/mL 1563): 2605
- Proliferation (luminescent ATP assay), Mean (Donor 3 COP T-Cell Lines; T-cell line 165-F3C, 10 μg/mL antigen, Day 77 of culture, 0 μg/mL 1563): 3608
- Proliferation (luminescent ATP assay), Mean (Donor 3 COP T-Cell Lines; T-cell line 165-F6C, 1.25 μg/mL antigen, Day 76 of culture, No Antigen value 517): 431
- Proliferation (luminescent ATP assay), Mean (Donor 3 COP T-Cell Lines; T-cell line 165-F6C, 2.5 μg/mL antigen, Day 76 of culture, No Antigen value 517): 518
- Proliferation (luminescent ATP assay), Mean (Donor 3 COP T-Cell Lines; T-cell line 165-F6C, 5 μg/mL antigen, Day 76 of culture, No Antigen value 517): 490
- Proliferation (luminescent ATP assay), Mean (Donor 3 COP T-Cell Lines; T-cell line 165-F6C, 10 μg/mL antigen, Day 76 of culture, No Antigen value 517): 736
